Measurements from article PMC10272112 (Nature Communications, 2023).
“And” between values parts separate entries of the source, which are not always exact repeats. Equal entries are not always repeated.

Legend:
HDAC6 = target: T1, HDAC6 (Homo sapiens, UniProt Q9UBN7); test: HDAC-Glo assay; format: biochemical; design: purchased BPS Bioscience 50006; settings: sheet S2d
T1 sequence (Q9UBN7 1-1215): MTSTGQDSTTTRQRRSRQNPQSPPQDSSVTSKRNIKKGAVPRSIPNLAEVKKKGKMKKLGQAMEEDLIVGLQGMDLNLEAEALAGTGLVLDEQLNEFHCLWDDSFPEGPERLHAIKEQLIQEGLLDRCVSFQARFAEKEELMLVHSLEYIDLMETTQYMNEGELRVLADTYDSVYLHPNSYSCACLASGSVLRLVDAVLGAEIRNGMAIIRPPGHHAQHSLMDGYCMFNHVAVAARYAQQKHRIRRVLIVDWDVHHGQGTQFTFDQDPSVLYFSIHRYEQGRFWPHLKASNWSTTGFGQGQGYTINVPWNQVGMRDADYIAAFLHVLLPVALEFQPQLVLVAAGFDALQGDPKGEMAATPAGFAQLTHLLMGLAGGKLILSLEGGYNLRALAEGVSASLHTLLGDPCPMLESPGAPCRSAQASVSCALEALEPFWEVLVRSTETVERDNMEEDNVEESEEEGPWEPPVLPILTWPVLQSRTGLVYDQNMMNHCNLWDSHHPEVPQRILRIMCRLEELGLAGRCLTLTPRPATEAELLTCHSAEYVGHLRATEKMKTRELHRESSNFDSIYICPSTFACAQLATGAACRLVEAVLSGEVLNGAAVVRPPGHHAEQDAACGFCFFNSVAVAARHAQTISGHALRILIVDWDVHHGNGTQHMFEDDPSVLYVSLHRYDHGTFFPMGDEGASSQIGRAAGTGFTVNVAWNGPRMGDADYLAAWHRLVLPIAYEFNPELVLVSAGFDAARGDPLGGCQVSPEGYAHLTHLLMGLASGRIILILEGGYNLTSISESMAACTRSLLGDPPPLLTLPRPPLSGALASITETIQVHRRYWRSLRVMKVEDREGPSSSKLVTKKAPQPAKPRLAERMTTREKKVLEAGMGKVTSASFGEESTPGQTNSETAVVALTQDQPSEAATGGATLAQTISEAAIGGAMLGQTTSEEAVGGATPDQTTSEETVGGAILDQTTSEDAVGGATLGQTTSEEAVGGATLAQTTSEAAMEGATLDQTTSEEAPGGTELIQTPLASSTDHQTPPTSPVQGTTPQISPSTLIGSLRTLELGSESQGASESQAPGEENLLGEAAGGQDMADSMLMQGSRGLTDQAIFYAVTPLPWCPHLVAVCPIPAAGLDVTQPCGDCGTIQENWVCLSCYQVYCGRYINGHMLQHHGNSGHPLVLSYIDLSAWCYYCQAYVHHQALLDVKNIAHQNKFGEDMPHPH
Method: (§1) To validate the inhibition of HDACs by LA and LM and elaborate on the structure-activity relationship (SAR) of enantiomers as well as oxidized versus reduced forms of the molecules, we performed enzyme activity assays for recombinant HDAC1,2,3,6,8 as well as FRET-based binding assay for recombinant HDAC10.
(§2) The experiments were performed according to ref. [48]. […] Drug dosing was performed with a D300e Digital Dispenser (Tecan). HDACs (7 ng/mL for HDAC1, 25 ng/mL for HDAC2, 200 ng/mL for HDAC3/Ncor2 complex, 100 ng/mL for HDAC6, 200 ng/mL for HDAC8) and inhibitors were incubated together at room temperature (RT) for 30 min. After the addition of the HDAC-Glo™ I/II reagent, plates were shaken (800 rpm orbital shaker, 30 s), centrifuged (300 g, 1 min), and incubated at RT for 30 min. Luminescence was detected with a CLARIOstar (BMG Labtech) plate reader.

HDAC8 = target: T2, HDAC8 (Homo sapiens, UniProt Q9BY41); test: HDAC-Glo assay; format: biochemical; design: purchased BPS Bioscience 50008; settings: sheet S2d
T2 sequence (Q9BY41 1-377): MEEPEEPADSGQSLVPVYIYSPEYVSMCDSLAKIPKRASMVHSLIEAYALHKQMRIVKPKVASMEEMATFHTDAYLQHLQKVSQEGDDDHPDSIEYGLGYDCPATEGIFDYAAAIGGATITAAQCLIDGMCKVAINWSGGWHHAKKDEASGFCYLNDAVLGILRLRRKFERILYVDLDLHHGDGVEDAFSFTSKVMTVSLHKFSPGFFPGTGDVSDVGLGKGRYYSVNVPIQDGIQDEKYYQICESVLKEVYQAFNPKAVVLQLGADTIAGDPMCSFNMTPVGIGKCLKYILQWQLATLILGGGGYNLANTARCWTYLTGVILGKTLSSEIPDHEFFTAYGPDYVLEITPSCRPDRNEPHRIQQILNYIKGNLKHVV
Method: as §1, §2

HDAC1 = HDAC1 (Homo sapiens, UniProt Q13547); test: HDAC-Glo assay; format: biochemical; design: purchased BPS Bioscience 50051; settings: sheet S2d
Method: as §1, §2

TwinStrep-GST-HDAC10 = target: T3, TwinStrep-GST-HDAC10 (Homo sapiens, UniProt Q969S8); test: HDAC10 TR-FRET assay; format: binding; settings: sheet S2e
T3 sequence (Q969S8 1-669): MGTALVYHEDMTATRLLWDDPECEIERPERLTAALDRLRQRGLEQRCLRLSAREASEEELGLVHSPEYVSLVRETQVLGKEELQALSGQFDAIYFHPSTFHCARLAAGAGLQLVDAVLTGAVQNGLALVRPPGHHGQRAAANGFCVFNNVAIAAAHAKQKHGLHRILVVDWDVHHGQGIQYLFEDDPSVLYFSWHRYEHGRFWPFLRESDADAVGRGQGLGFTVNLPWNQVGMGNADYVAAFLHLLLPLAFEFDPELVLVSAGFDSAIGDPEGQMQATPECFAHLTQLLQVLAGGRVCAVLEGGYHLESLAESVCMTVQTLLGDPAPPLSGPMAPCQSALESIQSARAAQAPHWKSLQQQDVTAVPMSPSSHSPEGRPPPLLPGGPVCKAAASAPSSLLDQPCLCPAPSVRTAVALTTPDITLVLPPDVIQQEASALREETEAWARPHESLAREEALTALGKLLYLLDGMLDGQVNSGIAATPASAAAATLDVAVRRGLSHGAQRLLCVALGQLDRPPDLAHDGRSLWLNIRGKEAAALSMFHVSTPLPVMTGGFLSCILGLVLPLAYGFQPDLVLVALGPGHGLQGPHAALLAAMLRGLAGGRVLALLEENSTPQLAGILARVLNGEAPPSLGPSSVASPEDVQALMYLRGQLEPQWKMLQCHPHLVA
Method: as §1
Inhibitors with a D300e Digital Dispenser (Tecan). After drug dosing to the premixed assay reagents in buffer, plates were shaken (800 rpm orbital shaker, 30 s), centrifuged (300g, 1 min), and incubated at RT in the dark for 90 min. TR-FRET was measured with a CLARIOstar (BMG Labtech) plate reader, equipped with TR-FRET filters.

HDAC1, sequence (Q13547 whole entry): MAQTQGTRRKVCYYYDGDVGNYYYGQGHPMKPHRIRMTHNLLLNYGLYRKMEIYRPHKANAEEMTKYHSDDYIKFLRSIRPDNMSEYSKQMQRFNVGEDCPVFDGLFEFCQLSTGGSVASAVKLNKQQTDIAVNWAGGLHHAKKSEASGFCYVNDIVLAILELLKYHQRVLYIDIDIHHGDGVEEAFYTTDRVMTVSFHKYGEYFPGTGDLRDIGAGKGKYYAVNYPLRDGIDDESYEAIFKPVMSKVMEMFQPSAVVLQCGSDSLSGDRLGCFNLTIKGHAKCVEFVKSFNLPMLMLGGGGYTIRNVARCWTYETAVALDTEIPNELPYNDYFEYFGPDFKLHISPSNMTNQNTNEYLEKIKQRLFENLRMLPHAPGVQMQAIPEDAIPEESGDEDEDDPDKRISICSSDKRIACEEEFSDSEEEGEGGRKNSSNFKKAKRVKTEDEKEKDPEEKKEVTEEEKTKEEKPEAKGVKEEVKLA

Question: With `O=C(O)CCCCC(S)CCS` (centres unmarked) [LAred] as the molecule, how does the HDAC6 relative activity (HDAC6; log conc -3.30103) read?
Answer: The HDAC6 relative activity was 1.901 and 1.871 and 1.9083.

Question: And the HDAC6 relative activity (HDAC6; log conc -3.82945)?
Answer: The HDAC6 relative activity was 3.442 and 3.206 and 3.406.

Question: What about the HDAC6 relative activity (HDAC6; log conc -4.35788) of the same molecule?
Answer: The HDAC6 relative activity was 6.925 and 6.75 and 6.858.

Question: And the HDAC6 relative activity (HDAC6; log conc -4.88629)?
Answer: The HDAC6 relative activity was 16.7633 and 15.9117 and 16.5726.

Question: What about the HDAC6 relative activity (HDAC6; log conc -5.41477) of the same molecule?
Answer: The HDAC6 relative activity was 38.1371 and 36.4753 and 35.86.

Question: What about the HDAC6 relative activity (HDAC6; log conc -5.94309) of the same molecule?
Answer: Its HDAC6 relative activity is 60.9287 and 58.1296 and 64.9441.

Question: And the HDAC6 relative activity (HDAC6; log conc -6.47756)?
Answer: Its HDAC6 relative activity is 84.471 and 78.2193 and 82.7984.

Question: What about the HDAC6 relative activity (HDAC6; log conc -6.87615) of the same molecule?
Answer: Its HDAC6 relative activity is 87.6459 and 83.3784 and 85.1621.

Question: What about the HDAC8 relative activity (HDAC8; log conc -3.30103) of the same molecule?
Answer: Its HDAC8 relative activity is 5.5387 and 6.443 and 4.956.

Question: And the HDAC8 relative activity (HDAC8; log conc -3.82945)?
Answer: The HDAC8 relative activity was 15.2478 and 14.986 and 14.6707.

Question: And the HDAC8 relative activity (HDAC8; log conc -4.35788)?
Answer: Its HDAC8 relative activity is 32.9883 and 33.8093 and 29.5437.

Question: What about the HDAC8 relative activity (HDAC8; log conc -4.88629) of the same molecule?
Answer: The HDAC8 relative activity was 65.7743 and 68.9393 and 55.1609.

Question: What about the HDAC8 relative activity (HDAC8; log conc -5.41477) of the same molecule?
Answer: The HDAC8 relative activity was 94.4673 and 96.4781 and 81.2779.

Question: And the HDAC8 relative activity (HDAC8; log conc -5.94309)?
Answer: The HDAC8 relative activity was 99.9702 and 99.768 and 95.3061.

Question: What about the HDAC8 relative activity (HDAC8; log conc -6.47756) of the same molecule?
Answer: The HDAC8 relative activity was 102.1 and 101.594 and 89.0594.

Question: And the HDAC8 relative activity (HDAC8; log conc -6.87615)?
Answer: Its HDAC8 relative activity is 104.349 and 101.731 and 91.7247.

Question: And the HDAC1 relative activity (HDAC1; log conc -3.30103)?
Answer: The HDAC1 relative activity was 2.768 and 2.872 and 2.683.

Question: What about the HDAC1 relative activity (HDAC1; log conc -3.82945) of the same molecule?
Answer: The HDAC1 relative activity was 9.265 and 8.951 and 9.199.

Question: What about the HDAC1 relative activity (HDAC1; log conc -4.35788) of the same molecule?
Answer: The HDAC1 relative activity was 26.7114 and 25.7521 and 27.3764.

Question: What about the HDAC1 relative activity (HDAC1; log conc -4.88629) of the same molecule?
Answer: The HDAC1 relative activity was 53.7175 and 53.6506 and 52.4863.

Question: What about the HDAC1 relative activity (HDAC1; log conc -5.41477) of the same molecule?
Answer: Its HDAC1 relative activity is 84.4773 and 84.2156 and 82.4618.

Question: And the HDAC1 relative activity (HDAC1; log conc -5.94309)?
Answer: Its HDAC1 relative activity is 94.7528 and 92.6024 and 91.8471.

Question: What about the HDAC1 relative activity (HDAC1; log conc -6.47756) of the same molecule?
Answer: Its HDAC1 relative activity is 99.9185 and 101.441 and 101.474.

Question: And the HDAC1 relative activity (HDAC1; log conc -6.87615)?
Answer: The HDAC1 relative activity was 103.379 and 101.234 and 95.7354.

Question: What does the source list for `O=C(O)CCCCC(S)CCS` (centres unmarked) [R/S Lipoic Acid Reduced]?
Answer: HDAC10 TR-FRET relative signal (TwinStrep-GST-HDAC10; log conc -5.74088): 12.9805 and 13.6219 and 13.4323; HDAC10 TR-FRET relative signal (TwinStrep-GST-HDAC10; log conc -6.32148): 35.3961 and 30.9531 and 27.2587; HDAC10 TR-FRET relative signal (TwinStrep-GST-HDAC10; log conc -6.92082): 58.0202 and 63.7897 and 66.3493; HDAC10 TR-FRET relative signal (TwinStrep-GST-HDAC10; log conc -7.57349): 84.4678 and 78.5713 and 85.276; HDAC10 TR-FRET relative signal (TwinStrep-GST-HDAC10; log conc -8.06198): 102.777 and 109.857 and 101.86
